# Measured values reported in patent US20220408777A1, “FOOD COMPOSITION FOR PREVENTING AND AM[…] […] NONI AND METHOD FOR PREPARING SAME” (NSTBIO. CO., LTD., priority 2020, published 2022).
# Counter-ions that a name gives are not always drawn.
# Legend:
# [1] = tested on: C57BL/KsJ db/db diabetic mice; experiment: Measurement of fasting blood glucose (in vivo efficacy test for blood glucose lowering); conditions: oral once a day, Noni 100 mg/kg, Metformin 200 mg/kg
# Protocol: (§1) An administration sample administered to a diabetic model positive control was a Metformin Tab (metformin hydrochloride, JRP), which is a diabetic drug. A dose was 200 mg/kg body weight of a mouse (denoted as Metformin 200 mg/kg).
# (§2) An administration sample administered to a diabetic model fermented noni group was a food composition containing the fermented noni obtained in Example 1. A dose was 100 mg/kg body weight of a mouse (denoted as Noni 100 mg/kg).
# (§3) As for the administration method, each administration sample was dissolved in 0.5% carboxymethyl cellulose (CMC) for each dose and orally administered once a day for 6 weeks.
# The fasting blood glucose of the experimental animals was measured once a week for 6 weeks using a glucometer. Fasting blood glucose was measured at 1-week (7-day) intervals for 6 weeks (42 days) for each experimental group.
# [2] = tested on: C57BL/KsJ db/db diabetic mice; experiment: Oral glucose tolerance test (OGTT); type: in vivo; conditions: db/db mice after 6 weeks oral administration, Noni 100 mg/kg, Metformin 200 mg/kg; for blood glucose decreased (OGTT): glucose 3.0 g/kg oral
# Protocol: as §1, §2, §3
# After the completion of oral administration for 6 weeks, an oral glucose tolerance test (OGTT) was performed.
# After experimental animals were fasted for 12 hours, fasting blood glucose was measured by collecting blood from the tail vein, and then a 50% glucose solution (3.0 g/kg of B.W) was orally administered to all groups, and after 30 minutes, 60 minutes, 120 minutes and 180 minutes, blood glucose was measured using a glucometer.
smiles,measurement,setting,value
"CN(C)C(=N)N=C(N)N [Metformin, metformin hydrochloride]",decrease in fasting blood glucose,[1]; after 6 weeks,34%
same,fasting blood glucose,"[1]; for 1 to 6 weeks, FIG. 2",consistently low
same,AUC value decreased (OGTT area under curve),"[2]; compared to db/db control, FIG. 4",23.3%
same,blood glucose decreased (OGTT),"[2]; at 2 hr, compared to db/db control",22.9%
same,blood glucose decreased (OGTT),"[2]; at 3 hr, compared to db/db control",28.5%
same,blood glucose decreased (OGTT),"[2]; from 1 hr, compared to blood glucose increased at 0.5 hr in db/db control",33.1%
